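Assay format: 96-well plates, 48-hour exposure. The concentration for 50% growth inhibition is given as GI50.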 Calls of active or inactive are those of the source. No stated cut-off is given here; in the data, active = GI50 up to about 1.1 µM and inactive = higher.
What was measured:
Assay in all cases: NCI tumour cell line growth inhibition, 48 h
SK-MEL-5 = test system: SK-MEL-5
SF-295 = test system: SF-295
MOLT-4 = test system: MOLT-4
UACC-257 = test system: UACC-257
TK-10 = test system: TK-10
HT-29 = test system: HT-29
EKVX = test system: EKVX
OVCAR-8 = test system: OVCAR-8
IGROV-1 = test system: IGROV-1
SF-539 = test system: SF-539
NCI-H522 = test system: NCI-H522
OVCAR-4 = test system: OVCAR-4
M14 = test system: M14
SNB-19 = test system: SNB-19
RXF 393 = test system: RXF 393
786-0 = test system: 786-0
BT-549 = test system: BT-549
SR = test system: SR
MCF7 = test system: MCF7
SK-MEL-2 = test system: SK-MEL-2

SMILES	GI50 (SK-MEL-5)	GI50 (SF-295)	GI50 (MOLT-4)	GI50 (UACC-257)	GI50 (TK-10)	GI50 (HT-29)	GI50 (EKVX)	GI50 (OVCAR-8)	GI50 (IGROV-1)	GI50 (SF-539)	GI50 (NCI-H522)	GI50 (OVCAR-4)	GI50 (M14)	GI50 (SNB-19)	GI50 (RXF 393)	GI50 (786-0)	GI50 (BT-549)	GI50 (SR)	GI50 (MCF7)	GI50 (SK-MEL-2)
N#CC(c1cc(Cl)ncn1)c1nc2cc(C(F)(F)F)ccc2s1 (stereo unspecified)	9.57 µM (inactive)	7.33 µM (inactive)	4.74 µM (inactive)	4.24 µM (inactive)	6.15 µM (inactive)	3.39 µM (inactive)	14.5 µM (inactive)	3.83 µM (inactive)	5.87 µM (inactive)	4.63 µM (inactive)	1.24 µM (inactive)	2.97 µM (inactive)	4.09 µM (inactive)	3.83 µM (inactive)	4.33 µM (inactive)	3.3 µM (inactive)	3.09 µM (inactive)	–	–	–
OCCC/N=C1N=C(Cl)/C(=C\c2ccccc2)N\1	> 100 µM (inactive)	> 100 µM (inactive)	> 100 µM (inactive)	> 100 µM (inactive)	> 100 µM (inactive)	> 100 µM (inactive)	> 100 µM (inactive)	> 100 µM (inactive)	> 100 µM (inactive)	> 100 µM (inactive)	> 100 µM (inactive)	> 100 µM (inactive)	> 100 µM (inactive)	> 100 µM (inactive)	> 100 µM (inactive)	> 100 µM (inactive)	–	> 100 µM (inactive)	> 100 µM (inactive)	–
Nc1ccc2ccc(-c3ccc[nH]3)nc2n1	> 100 µM (inactive)	> 100 µM (inactive)	–	> 100 µM (inactive)	> 100 µM (inactive)	–	> 100 µM (inactive)	> 100 µM (inactive)	> 100 µM (inactive)	> 100 µM (inactive)	> 100 µM (inactive)	> 100 µM (inactive)	> 100 µM (inactive)	> 100 µM (inactive)	> 100 µM (inactive)	> 100 µM (inactive)	> 100 µM (inactive)	–	> 100 µM (inactive)	> 100 µM (inactive)
CSc1nc(Cl)c2c(n1)Sc1nc3ccccc3n1N=C2	21.3 µM (inactive)	> 100 µM (inactive)	21.7 µM (inactive)	35.8 µM (inactive)	33.7 µM (inactive)	23.2 µM (inactive)	–	19.1 µM (inactive)	17 µM (inactive)	–	19 µM (inactive)	29.4 µM (inactive)	21 µM (inactive)	> 100 µM (inactive)	22.6 µM (inactive)	28.2 µM (inactive)	18.6 µM (inactive)	–	–	50.4 µM (inactive)
CN1CCN(Cn2nc(-c3ccccc3)n(/N=C/c3ccc(-c4ccc(Cl)cc4Cl)o3)c2=S)CC1	7.71 µM (inactive)	11.4 µM (inactive)	0.0713 µM (active)	18 µM (inactive)	15.1 µM (inactive)	12.3 µM (inactive)	30.1 µM (inactive)	8.45 µM (inactive)	8.97 µM (inactive)	13.5 µM (inactive)	28.2 µM (inactive)	16.3 µM (inactive)	10.8 µM (inactive)	–	4.22 µM (inactive)	13.1 µM (inactive)	–	1.51 µM (inactive)	12.4 µM (inactive)	20.7 µM (inactive)
COc1cccc(OC)c1NC(=O)C(=O)Nn1c(NNC(=O)c2ccncc2)nc2ccccc2c1=O	> 100 µM (inactive)	> 100 µM (inactive)	> 100 µM (inactive)	> 100 µM (inactive)	> 100 µM (inactive)	> 100 µM (inactive)	84.9 µM (inactive)	> 100 µM (inactive)	> 100 µM (inactive)	> 100 µM (inactive)	> 100 µM (inactive)	> 100 µM (inactive)	> 100 µM (inactive)	> 100 µM (inactive)	> 100 µM (inactive)	> 100 µM (inactive)	> 100 µM (inactive)	–	> 100 µM (inactive)	> 100 µM (inactive)
CC1=C(CO)C(=O)O[C@@H]([C@@H](C)[C@H]2CC[C@H]3[C@@H]4C[C@@H](O)[C@@]5(O)CC=CC(=O)[C@]5(C)[C@H]4CC[C@]23C)C1 [JABOROSALACTONE D]	32.6 µM (inactive)	61.5 µM (inactive)	26.6 µM (inactive)	> 100 µM (inactive)	> 100 µM (inactive)	33.1 µM (inactive)	49.2 µM (inactive)	31.3 µM (inactive)	15.1 µM (inactive)	31 µM (inactive)	14.2 µM (inactive)	32.2 µM (inactive)	49.2 µM (inactive)	46.5 µM (inactive)	22.3 µM (inactive)	20.8 µM (inactive)	27.7 µM (inactive)	–	39.7 µM (inactive)	43.7 µM (inactive)
CCOC(=O)c1sc2c(c1OC(=O)c1ccccc1)c(=O)n(-c1ccccc1)c(=S)n2-c1ccccc1	20.7 µM (inactive)	49.7 µM (inactive)	42.8 µM (inactive)	87.3 µM (inactive)	70.1 µM (inactive)	19.2 µM (inactive)	63.8 µM (inactive)	34.3 µM (inactive)	19.8 µM (inactive)	20.6 µM (inactive)	23.6 µM (inactive)	12.4 µM (inactive)	19.9 µM (inactive)	40.3 µM (inactive)	43.5 µM (inactive)	15.9 µM (inactive)	–	–	29.4 µM (inactive)	–
Cc1ccc(S(=O)(=O)Nn2c(S)c(C#N)c(-c3ccc([N+](=O)[O-])cc3)c(C#N)c2=O)cc1	12 µM (inactive)	49.4 µM (inactive)	17.3 µM (inactive)	40.8 µM (inactive)	65.3 µM (inactive)	32.5 µM (inactive)	32 µM (inactive)	36.6 µM (inactive)	19.4 µM (inactive)	16.7 µM (inactive)	15.7 µM (inactive)	24.7 µM (inactive)	35.1 µM (inactive)	–	39 µM (inactive)	20 µM (inactive)	12.8 µM (inactive)	–	25.6 µM (inactive)	23 µM (inactive)
Nc1cnc(Nc2cccc3ccccc23)o1	> 10 µM (inactive)	> 10 µM (inactive)	–	> 10 µM (inactive)	> 10 µM (inactive)	> 10 µM (inactive)	> 10 µM (inactive)	> 10 µM (inactive)	> 10 µM (inactive)	> 10 µM (inactive)	> 10 µM (inactive)	> 10 µM (inactive)	> 10 µM (inactive)	> 10 µM (inactive)	> 10 µM (inactive)	> 10 µM (inactive)	–	–	> 10 µM (inactive)	> 10 µM (inactive)
CCOC(=O)C(NC(=O)Nc1ccc(Cl)c(Cl)c1)C(F)(F)F (stereo unspecified)	> 100 µM (inactive)	–	> 100 µM (inactive)	> 100 µM (inactive)	> 100 µM (inactive)	> 100 µM (inactive)	77.1 µM (inactive)	> 100 µM (inactive)	> 100 µM (inactive)	> 100 µM (inactive)	–	–	> 100 µM (inactive)	> 100 µM (inactive)	> 100 µM (inactive)	> 100 µM (inactive)	45.2 µM (inactive)	> 100 µM (inactive)	–	63 µM (inactive)
C/C(=C\c1ccc(Cl)c(Cl)c1)[N+](=O)[O-]	2.04 µM (inactive)	3.68 µM (inactive)	0.398 µM (active)	1.3 µM (inactive)	1.86 µM (inactive)	3.78 µM (inactive)	2.08 µM (inactive)	1.13 µM (inactive)	2.16 µM (inactive)	2.03 µM (inactive)	1.63 µM (inactive)	2.51 µM (inactive)	0.738 µM (active)	2.39 µM (inactive)	–	0.579 µM (active)	–	0.685 µM (active)	0.433 µM (active)	1.99 µM (inactive)
Cc1cc(S(=O)(=O)Nc2n[nH]c(Nc3ccccc3)n2)c(S)cc1Cl	> 10 µM (inactive)	> 10 µM (inactive)	> 10 µM (inactive)	> 10 µM (inactive)	> 10 µM (inactive)	> 10 µM (inactive)	> 10 µM (inactive)	> 10 µM (inactive)	> 10 µM (inactive)	> 10 µM (inactive)	> 10 µM (inactive)	> 10 µM (inactive)	> 10 µM (inactive)	> 10 µM (inactive)	> 10 µM (inactive)	> 10 µM (inactive)	> 10 µM (inactive)	–	> 10 µM (inactive)	> 10 µM (inactive)
CCOC(=O)C1=C(N2CCCC2)C(=O)C(C(=O)OCC)C1 (stereo unspecified)	> 100 µM (inactive)	> 100 µM (inactive)	> 100 µM (inactive)	> 100 µM (inactive)	> 100 µM (inactive)	–	> 100 µM (inactive)	> 100 µM (inactive)	> 100 µM (inactive)	> 100 µM (inactive)	> 100 µM (inactive)	> 100 µM (inactive)	> 100 µM (inactive)	> 100 µM (inactive)	> 100 µM (inactive)	> 100 µM (inactive)	> 100 µM (inactive)	–	> 100 µM (inactive)	> 100 µM (inactive)
COc1ccc(Cl)cc1NC(=O)O/N=C(\Cl)C(C)C	5.22 µM (inactive)	17.9 µM (inactive)	2.03 µM (inactive)	17.1 µM (inactive)	2.55 µM (inactive)	16.4 µM (inactive)	3.74 µM (inactive)	15 µM (inactive)	12.2 µM (inactive)	13.1 µM (inactive)	0.752 µM (active)	17.2 µM (inactive)	3.28 µM (inactive)	29.5 µM (inactive)	3.76 µM (inactive)	13 µM (inactive)	2.56 µM (inactive)	–	6.71 µM (inactive)	18.7 µM (inactive)
